Data on one compound can be found in article PMC5218480 (PLoS ONE, 2017).

This assay concerns MV-4-11 cells. Nature of the assay: Gene expression microarray analysis (Affymetrix PrimeView) and GSEA. The class given is cell-based, human. Also on record: RFU PODN (11730768_x_at) / Fold change /veh PODN (11730768_x_at) / RFU LINC00158 (11744669_a_at) / Fold change /veh LINC00158 (11744669_a_at) / RFU DUSP10 (11751237_a_at) / Fold change /veh DUSP10 (11751237_a_at) / RFU ID3 (11757404_x_at) / Fold change /veh ID3 (11757404_x_at) / RFU PLEKHG5 (11737974_s_at) / Fold change /veh PLEKHG5 (11737974_s_at) / RFU LRRC4B (11730491_at) / Fold change /veh LRRC4B (11730491_at) / RFU GIMAP4 (11747438_a_at) / Fold change /veh GIMAP4 (11747438_a_at) / RFU KRT8 (11758183_x_at) / Fold change /veh KRT8 (11758183_x_at) / RFU CNN1 (11734310_a_at) / Fold change /veh CNN1 (11734310_a_at) / RFU VPS37D (11726825_at) / Fold change /veh VPS37D (11726825_at) / RFU C10orf10 (11716522_x_at) / Fold change /veh C10orf10 (11716522_x_at) / RFU KIR2DL2 /// KIR2DL4 /// KIR2DL5A /// KIR2DL5B /// KIR2DS1 /// KIR2DS2 /// KIR2DS3 /// KIR2DS4 /// KIR3DL3 /// KIR3DL3 /// KIR3DS1 (11738374_at) / Fold change /veh KIR2DL2 /// KIR2DL4 /// KIR2DL5A /// KIR2DL5B /// KIR2DS1 /// KIR2DS2 /// KIR2DS3 /// KIR2DS4 /// KIR3DL3 /// KIR3DL3 /// KIR3DS1 (11738374_at) / RFU C1QL1 (11718748_at) / Fold change /veh C1QL1 (11718748_at) / RFU TMPRSS4 (11747572_a_at) / Fold change /veh TMPRSS4 (11747572_a_at) / RFU HAMP (11756126_x_at) / Fold change /veh HAMP (11756126_x_at) / RFU RNFT2 (11725882_a_at) / Fold change /veh RNFT2 (11725882_a_at) / RFU NR4A2 (11747474_a_at) / Fold change /veh NR4A2 (11747474_a_at) / RFU ABCC12 (11746883_a_at) / Fold change /veh ABCC12 (11746883_a_at) / RFU TMEM136 (11760407_x_at) / Fold change /veh TMEM136 (11760407_x_at) / RFU CLDN22 /// WWC2 (11732394_at) / Fold change /veh CLDN22 /// WWC2 (11732394_at) / RFU HLA-DPB1 (11760878_x_at) / Fold change /veh HLA-DPB1 (11760878_x_at) / RFU SPINT1 (11716480_a_at) / Fold change /veh SPINT1 (11716480_a_at) / RFU GAP43 (11754022_s_at) / Fold change /veh GAP43 (11754022_s_at) / RFU A4GNT (11735810_at) / Fold change /veh A4GNT (11735810_at) / RFU PRB3 (11715151_x_at) / Fold change /veh PRB3 (11715151_x_at) / RFU TUBB4B (11761932_at) / Fold change /veh TUBB4B (11761932_at) / RFU CAPN14 (11732068_a_at) / Fold change /veh CAPN14 (11732068_a_at) / RFU TMCC2 (11721928_a_at) / Fold change /veh TMCC2 (11721928_a_at) / RFU IRGQ (11745062_a_at) / Fold change /veh IRGQ (11745062_a_at) / RFU FAM174B (11720279_a_at) / Fold change /veh FAM174B (11720279_a_at) / RFU TMPRSS4 (11748680_a_at) / Fold change /veh TMPRSS4 (11748680_a_at) / RFU FAM212B (11763350_a_at) / Fold change /veh FAM212B (11763350_a_at) / RFU PLEKHG5 (11743358_a_at) / Fold change /veh PLEKHG5 (11743358_a_at) / RFU ZSCAN30 (11745921_a_at) / Fold change /veh ZSCAN30 (11745921_a_at) / RFU CMKLR1 (11741424_a_at) / Fold change /veh CMKLR1 (11741424_a_at) / RFU LOC101060620 /// MAPK8IP1 (11723275_at) / Fold change /veh LOC101060620 /// MAPK8IP1 (11723275_at) / RFU SPTSSB (11747773_x_at) / Fold change /veh SPTSSB (11747773_x_at) / RFU PRSS12 (11739890_at) / Fold change /veh PRSS12 (11739890_at) / RFU BIN1 (11741810_x_at) / Fold change /veh BIN1 (11741810_x_at) / RFU WNT11 (11732464_a_at) / Fold change /veh WNT11 (11732464_a_at) / RFU C10orf10 (11716521_a_at) / Fold change /veh C10orf10 (11716521_a_at) / RFU C5orf56 (11738089_at) / Fold change /veh C5orf56 (11738089_at) / RFU CYB561 (11721691_x_at) / Fold change /veh CYB561 (11721691_x_at) / RFU ANKRD19P (11752326_a_at) / Fold change /veh ANKRD19P (11752326_a_at) / RFU OR2T12 /// OR2T33 /// OR2T8 (11738714_s_at) / Fold change /veh OR2T12 /// OR2T33 /// OR2T8 (11738714_s_at) / RFU VCAN (11748164_a_at) / Fold change /veh VCAN (11748164_a_at) / RFU JSRP1 (11732532_at) / Fold change /veh JSRP1 (11732532_at) / RFU KRTAP10-11 (11738290_x_at) / Fold change /veh KRTAP10-11 (11738290_x_at) / RFU MYO3A (11730013_a_at) / Fold change /veh MYO3A (11730013_a_at) / RFU EBF3 (11725865_a_at) / Fold change /veh EBF3 (11725865_a_at) / RFU CAMK2N1 (11719241_x_at) / Fold change /veh CAMK2N1 (11719241_x_at) / RFU C5orf56 (11738088_a_at) / Fold change /veh C5orf56 (11738088_a_at) / RFU OLFML3 (11715873_a_at) / Fold change /veh OLFML3 (11715873_a_at) / RFU LOC100653217 /// NTM (11731650_a_at) / Fold change /veh LOC100653217 /// NTM (11731650_a_at) / RFU MAPK11 (11762145_a_at) / Fold change /veh MAPK11 (11762145_a_at) / RFU FIZ1 (11724087_x_at) / Fold change /veh FIZ1 (11724087_x_at) / RFU OASL (11726364_x_at) / Fold change /veh OASL (11726364_x_at) / RFU SOX15 (11748057_x_at) / Fold change /veh SOX15 (11748057_x_at) / RFU CD79A (11719716_a_at) / Fold change /veh CD79A (11719716_a_at) / RFU HIST1H1D (11736915_at) / Fold change /veh HIST1H1D (11736915_at) / RFU CASKIN2 (11723855_a_at) / Fold change /veh CASKIN2 (11723855_a_at) / RFU LOC730098 (11760151_x_at) / Fold change /veh LOC730098 (11760151_x_at) / RFU OR4N2 (11742367_at) / Fold change /veh OR4N2 (11742367_at) / RFU PRRT2 (11749266_a_at) / Fold change /veh PRRT2 (11749266_a_at) / RFU SNX32 (11753110_a_at) / Fold change /veh SNX32 (11753110_a_at) / RFU CDHR5 (11726645_a_at) / Fold change /veh CDHR5 (11726645_a_at) / RFU RCAN1 (11760418_a_at) / Fold change /veh RCAN1 (11760418_a_at) / RFU FAM167A (11723789_a_at) / Fold change /veh FAM167A (11723789_a_at) / RFU FAM26E (11764081_at) / Fold change /veh FAM26E (11764081_at) / RFU ISYNA1 (11749810_s_at) / Fold change /veh ISYNA1 (11749810_s_at) / RFU ACY1 (11761880_at) / Fold change /veh ACY1 (11761880_at) / RFU 11764098_at / Fold change /veh 11764098_at / RFU SAMD14 (11745864_x_at) / Fold change /veh SAMD14 (11745864_x_at) / RFU NPB (11741838_a_at) / Fold change /veh NPB (11741838_a_at) / RFU TMPRSS6 (11731388_a_at) / Fold change /veh TMPRSS6 (11731388_a_at) / RFU KRTAP10-2 (11738614_at) / Fold change /veh KRTAP10-2 (11738614_at) / RFU ARHGAP8 /// PRR5-ARHGAP8 (11727945_x_at) / Fold change /veh ARHGAP8 /// PRR5-ARHGAP8 (11727945_x_at) / RFU KRTAP5-7 /// NADSYN1 (11734609_at) / Fold change /veh KRTAP5-7 /// NADSYN1 (11734609_at) / RFU RASL12 (11751679_a_at) / Fold change /veh RASL12 (11751679_a_at) / RFU CDKN2B (11736163_a_at) / Fold change /veh CDKN2B (11736163_a_at) / RFU PRF1 (11729649_at) / Fold change /veh PRF1 (11729649_at) / RFU, ZNF638 /// ZNF638-IT1 / Fold change vs veh, ZNF638 /// ZNF638-IT1 / RFU, PANK3 / Fold change vs veh, PANK3 / RFU, SH3YL1 / Fold change vs veh, SH3YL1 / RFU, ZEB2 / Fold change vs veh, ZEB2 / RFU, NRIP1 / Fold change vs veh, NRIP1 / RFU, PTTG1IP / Fold change vs veh, PTTG1IP / RFU, CAPN2 / Fold change vs veh, CAPN2 / RFU, MED14 / Fold change vs veh, MED14 / RFU, SNORA58 / Fold change vs veh, SNORA58 / RFU, C1orf63 / Fold change vs veh, C1orf63 / RFU, LRRFIP1 / Fold change vs veh, LRRFIP1 / RFU, NDUFAF7 / Fold change vs veh, NDUFAF7 / RFU, SLC12A2 / Fold change vs veh, SLC12A2 / RFU, IBTK / Fold change vs veh, IBTK / RFU, ESF1 / Fold change vs veh, ESF1 / Fold change vs veh, TMEM50B / RFU, TAOK1 / Fold change vs veh, TAOK1 / RFU, ACBD3 / Fold change vs veh, ACBD3 / RFU, TMA16 / Fold change vs veh, TMA16 / RFU, RWDD3 / Fold change vs veh, RWDD3 / RFU, BCAT1 / Fold change vs veh, BCAT1 / RFU, EDEM3 / Fold change vs veh, EDEM3 / RFU, TMEM33 / Fold change vs veh, TMEM33 / RFU, WDR75 / Fold change vs veh, WDR75 / RFU, AHCTF1 / Fold change vs veh, AHCTF1 / RFU, TFRC / Fold change vs veh, TFRC / RFU, ZDHHC17 / Fold change vs veh, ZDHHC17 / RFU, NOM1 / Fold change vs veh, NOM1 / RFU, ARL8B / Fold change vs veh, ARL8B / RFU, ZBTB11 / Fold change vs veh, ZBTB11 / RFU, TAMM41 / Fold change vs veh, TAMM41 / RFU, KIAA1704 /// LOC100996395 / Fold change vs veh, KIAA1704 /// LOC100996395 / RFU, ING1 / Fold change vs veh, ING1 / RFU, TRMT61B / Fold change vs veh, TRMT61B / RFU, FUBP3 / Fold change vs veh, FUBP3 / RFU, TP53 / Fold change vs veh, TP53 / RFU, TNKS2 / Fold change vs veh, TNKS2 / RFU, ZFP14 / Fold change vs veh, ZFP14 / RFU, ACTR2 / Fold change vs veh, ACTR2 / RFU, PPP3R1 / Fold change vs veh, PPP3R1 / RFU, PIK3R1 / Fold change vs veh, PIK3R1 / RFU, HNRNPA1 / Fold change vs veh, HNRNPA1 / RFU, RNF170 / Fold change vs veh, RNF170 / RFU, ZNF28 / Fold change vs veh, ZNF28 / RFU, RNGTT / Fold change vs veh, RNGTT / RFU, OGT / Fold change vs veh, OGT / RFU, BRD1 / Fold change vs veh, BRD1 / RFU, MARS / Fold change vs veh, MARS / RFU, ZNF655 / Fold change vs veh, ZNF655 / RFU, FAHD1 / Fold change vs veh, FAHD1 / RFU, BDP1 / Fold change vs veh, BDP1 / RFU, LRRCC1 / Fold change vs veh, LRRCC1 / RFU, ARID1A / Fold change vs veh, ARID1A / RFU, ZNF146 / Fold change vs veh, ZNF146 / RFU, ZNF330 / Fold change vs veh, ZNF330 / RFU, GPN3 / Fold change vs veh, GPN3 / RFU, C9orf123 / Fold change vs veh, C9orf123 / RFU, N4BP2L2 / Fold change vs veh, N4BP2L2 / RFU, ARFIP1 / Fold change vs veh, ARFIP1 / RFU, FAM179B / Fold change vs veh, FAM179B / RFU, BCL10 / Fold change vs veh, BCL10 / RFU, UHRF1BP1L / Fold change vs veh, UHRF1BP1L / RFU, BET1 / Fold change vs veh, BET1 / RFU, CNOT2 / Fold change vs veh, CNOT2 / RFU, ZNF268 / Fold change vs veh, ZNF268 / Fold change vs veh, ZNF507 / RFU, DGCR2 / Fold change vs veh, DGCR2 / RFU, WDSUB1 / Fold change vs veh, WDSUB1 / Fold change vs veh, HSP90B1 /// MIR3652 / RFU, ADSS / Fold change vs veh, ADSS / RFU, GK / Fold change vs veh, GK / RFU, ZNF148 / Fold change vs veh, ZNF148 / RFU, TAF9 / Fold change vs veh, TAF9 / RFU, SLC1A5 / Fold change vs veh, SLC1A5 / RFU, SLMO2 / Fold change vs veh, SLMO2 / RFU, ABCC4 / Fold change vs veh, ABCC4 / RFU, LOC101060439 /// RAP1B / Fold change vs veh, LOC101060439 /// RAP1B / RFU, RFX7 / Fold change vs veh, RFX7 / RFU, GTPBP10 / Fold change vs veh, GTPBP10 / RFU, CNEP1R1 / Fold change vs veh, CNEP1R1 / RFU, BIVM-ERCC5 /// ERCC5 / Fold change vs veh, BIVM-ERCC5 /// ERCC5 / RFU, ILF3 / Fold change vs veh, ILF3 / RFU 11762660_at / Fold change /veh 11762660_at / RFU VCAN (11757783_s_at) / Fold change /veh VCAN (11757783_s_at) / RFU DDX43 (11728927_at) / Fold change /veh DDX43 (11728927_at) / RFU KRT8 (11758188_x_at) / Fold change /veh KRT8 (11758188_x_at) / RFU NKD1 (11759106_at) / Fold change /veh NKD1 (11759106_at) / RFU SRD5A1 (11742802_a_at) / Fold change /veh SRD5A1 (11742802_a_at) / RFU TPSAB1 /// TPSB2 (11721975_s_at) / Fold change /veh TPSAB1 /// TPSB2 (11721975_s_at) / RFU GSTM3 (11746129_a_at) / Fold change /veh GSTM3 (11746129_a_at) / RFU IL23R (11737362_x_at) / Fold change /veh IL23R (11737362_x_at) / RFU TMEM51 (11727254_a_at) / Fold change /veh TMEM51 (11727254_a_at) / RFU PIWIL2 (11732686_x_at) / Fold change /veh PIWIL2 (11732686_x_at) / RFU ORM1 (11744905_x_at) / Fold change /veh ORM1 (11744905_x_at) / RFU CCDC152 (11743942_at) / Fold change /veh CCDC152 (11743942_at) / RFU ECM1 (11717891_a_at) / Fold change /veh ECM1 (11717891_a_at) / RFU IL23R (11748794_a_at) / Fold change /veh IL23R (11748794_a_at) / RFU TNFAIP8L3 (11732012_x_at) / Fold change /veh TNFAIP8L3 (11732012_x_at) / RFU MBOAT4 (11741988_at) / Fold change /veh MBOAT4 (11741988_at) / RFU 11764193_at / Fold change /veh 11764193_at / RFU TMEM53 (11763286_at) / Fold change /veh TMEM53 (11763286_at) / RFU MAGEB2 (11727129_at) / Fold change /veh MAGEB2 (11727129_at) / RFU TMEM200A (11744735_a_at) / Fold change /veh TMEM200A (11744735_a_at) / RFU CCDC152 (11751479_a_at) / Fold change /veh CCDC152 (11751479_a_at) / RFU FAM211A (11726209_a_at) / Fold change /veh FAM211A (11726209_a_at) / RFU RGS16 (11746705_a_at) / Fold change /veh RGS16 (11746705_a_at) / RFU VCAN (11755009_s_at) / Fold change /veh VCAN (11755009_s_at) / RFU RHOB (11743442_s_at) / Fold change /veh RHOB (11743442_s_at) / RFU RGS16 (11720943_a_at) / Fold change /veh RGS16 (11720943_a_at) / RFU RGS16 (11720944_at) / Fold change /veh RGS16 (11720944_at) / RFU, VPS4B / Fold change vs veh, VPS4B / RFU, CREB1 / Fold change vs veh, CREB1 / RFU, DNAJC13 / Fold change vs veh, DNAJC13 / RFU, GNAQ / Fold change vs veh, GNAQ / RFU, CDK5R1 / Fold change vs veh, CDK5R1 / RFU, ZRANB3 / Fold change vs veh, ZRANB3 / RFU, CUL4A / Fold change vs veh, CUL4A / RFU, CCNY / Fold change vs veh, CCNY / RFU, UFL1 / Fold change vs veh, UFL1 / RFU, COG3 / Fold change vs veh, COG3 / RFU, DIAPH2 / Fold change vs veh, DIAPH2 / RFU, SKA2 / Fold change vs veh, SKA2 / RFU, AFF3 / Fold change vs veh, AFF3 / RFU, LMF1 / Fold change vs veh, LMF1 / RFU, IPO11 / Fold change vs veh, IPO11 / RFU, DFFB / Fold change vs veh, DFFB / RFU, FOXP1 / Fold change vs veh, FOXP1 / RFU, CARD8 / Fold change vs veh, CARD8 / RFU, STRN3 / Fold change vs veh, STRN3 / RFU, ADK / Fold change vs veh, ADK / RFU, RASSF2 / Fold change vs veh, RASSF2 / RFU, WIPF1 / Fold change vs veh, WIPF1 / RFU, LARP1B / Fold change vs veh, LARP1B / RFU, RASA1 / Fold change vs veh, RASA1 / RFU, RB1 / Fold change vs veh, RB1 / RFU, PPFIA1 / Fold change vs veh, PPFIA1 / RFU, MAT2A / Fold change vs veh, MAT2A / RFU, CCT5 / Fold change vs veh, CCT5 / RFU, WDR92 / Fold change vs veh, WDR92 / RFU, CUX1 / Fold change vs veh, CUX1 / RFU, TTC7A / Fold change vs veh, TTC7A / RFU, TMEM135 / Fold change vs veh, TMEM135 / RFU, DEPTOR / Fold change vs veh, DEPTOR / RFU, CPM / Fold change vs veh, CPM / RFU, DNAJB6 / Fold change vs veh, DNAJB6 / RFU, CACNA2D3 / Fold change vs veh, CACNA2D3 / RFU, DTX4 / Fold change vs veh, DTX4 / RFU, TFCP2 / Fold change vs veh, TFCP2 / RFU, GMCL1 /// GMCL1P1 / Fold change vs veh, GMCL1 /// GMCL1P1 / RFU, AEBP2 / Fold change vs veh, AEBP2 / RFU, SNHG1 /// SNORD22 /// SNORD25 /// SNORD26 /// SNORD27 /// SNORD28 /// SNORD29 /// SNORD31 / Fold change vs veh, SNHG1 /// SNORD22 /// SNORD25 /// SNORD26 /// SNORD27 /// SNORD28 /// SNORD29 /// SNORD31 / Fold change (Aza/veh), C12orf56 (ProbeSet 11735607_a_at) / Fold change (ACY-1035/veh), C12orf56 (ProbeSet 11735607_a_at) / Fold change (Aza/veh), FGFR1OP (ProbeSet 11751329_s_at) / Fold change (ACY-1035/veh), FGFR1OP (ProbeSet 11751329_s_at) / Fold change (Aza/veh), VPS36 (ProbeSet 11739960_a_at) / Fold change (ACY-1035/veh), VPS36 (ProbeSet 11739960_a_at) / RFU SYPL1 (11715823_x_at) / Fold change /veh SYPL1 (11715823_x_at) / RFU IGFBP7 (11715501_s_at) / Fold change /veh IGFBP7 (11715501_s_at) / RFU REEP3 (11722064_at) / Fold change /veh REEP3 (11722064_at) / RFU IGLL1 (11728026_x_at) / Fold change /veh IGLL1 (11728026_x_at): dose or concentration left out as unconfirmed. The following applies: ProbeSet 11749477_a_at; LIST B.

In the case of `Nc1ccc(-c2cccs2)cc1NC(=O)c1ccc2c(c1)cc(C1CC1)n2CCN1CCOCC1` [ACY-1035], the “Fold change vs veh, EDEM3” value stood at 0.94.
